Source: patent US20090209571A1, “Phenanthrene derivatives as MPGES-1 inhibitors” (priority 2006, published 2009)

Target: T1, human mPGES-1 (Homo sapiens, UniProt O14684)
T1 construct: expressed in transfected cells; host or cells: CHO-K1 cells, transiently transfected; microsomal fraction used
T1 sequence (O14684 1-152): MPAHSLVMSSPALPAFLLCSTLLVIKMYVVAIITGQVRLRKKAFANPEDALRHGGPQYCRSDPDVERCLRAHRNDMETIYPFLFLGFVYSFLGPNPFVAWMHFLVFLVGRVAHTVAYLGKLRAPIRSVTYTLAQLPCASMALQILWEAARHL
Assay: Microsomal Prostaglandin E Synthase Assay
Format: biochemical
Conditions: microsomal fractions from CHO-K1 cells transiently transfected with human mPGES-1 cDNA; 1 μM PGH2; PGE2 by EIA; average of at least n=3; read-out: h-CHO (nM), potency expressed as IC50
Description: Compounds are tested as inhibitors of prostaglandin E synthase activity in microsomal prostaglandin e synthases, whole cell and in vivo assays. These assays measure prostaglandin E2 (PGE2) synthesis using either Enzymatic Immunoassay (EIA) or mass spectrometry. Cells used for microsomal preparation are CHO-K1 cells transiently transfected with plasmids encoding the human mPGES-1 cDNA. Cells used for cell-based experiments are human A549 (which express human mPGES-1). Guinea pigs are used to test the activity of selected compounds in vivo. In all these assays, 100% activity is defined as the PGE2 production in vehicle-treated samples. IC50 and ED50 represent the concentration or dose of inhibitor required to inhibit PGE2 synthesis by 50% as compared to the uninhibited control.
Prostaglandin E synthase microsomal fractions are prepared from CHO-K1 cells transiently transfected with plasmid encoding the human mPGES-1 cDNA. Microsomes are then prepared and the PGES assay begins with the incubation of 5 μg/ml microsomal PGES-1 with compound or DMSO (final 1%) for 20-30 minutes at room temperature. The enzyme reactions are performed in 200 mM KPi pH 7.0, 2 mM EDTA and 2.5 mM GSH-reduced form. The enzymatic reaction is then initiated by the addition of 1 μM final PGH2 substrate prepared in isopropanol (3.5% final in assay well) and incubated at room temperature for 30 seconds. The reaction is terminated by the addition of SnCl2 in 1N HCl (1 mg/ml final). Measurement of PGE2 production in the enzyme reaction aliquots is done by EIA using a standard commercially available kit (Cat #: 901-001 from Assay Designs).
The potency is expressed as IC50 and the value indicated is an average of at least n=3.

IC50 [nM] | Structure (SMILES)
10.5 | Fc1cccc(Cl)c1-c1nc2c3ccccc3c3sc(Cl)cc3c2[nH]1 [Example 2]
3.2 | N#Cc1cccc(C#N)c1-c1nc2c3ccc(Cl)cc3c3ccoc3c2[nH]1 [Example 12]
1.5 | CC(C)(O)C#Cc1ccc2c(c1)c1c(Cl)c(Cl)sc1c1[nH]c(-c3c(C#N)cccc3C#N)nc21 [Example 28]
1.8 | Fc1cccc(Cl)c1-c1nc2c3ccc(Cl)cc3c3cc(Br)sc3c2[nH]1 [Example 15]
